This note sets out measurements from patent publication US8293729B2 (Boehringer Ingelheim International GmbH, priority 2009, dated 2012).

pEC50: −log10 of the molar value.

The target in one assay is T1, human GPR119 receptor (Homo sapiens, UniProt Q8TDV5, S329A/T327A).
T1 construct: N-terminal leader […]; expressed in transfected cells
T1 sequence (Q8TDV5 with tags, fused parts or gaps T327A/S329A): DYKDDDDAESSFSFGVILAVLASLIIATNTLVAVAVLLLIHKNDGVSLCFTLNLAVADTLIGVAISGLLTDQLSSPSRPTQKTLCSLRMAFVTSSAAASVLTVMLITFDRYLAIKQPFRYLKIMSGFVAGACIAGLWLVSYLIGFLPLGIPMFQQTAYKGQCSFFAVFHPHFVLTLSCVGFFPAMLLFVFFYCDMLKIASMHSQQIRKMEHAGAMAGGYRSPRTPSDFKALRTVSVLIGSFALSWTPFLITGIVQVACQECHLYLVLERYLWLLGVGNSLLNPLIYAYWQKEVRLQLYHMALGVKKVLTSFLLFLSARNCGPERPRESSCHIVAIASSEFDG
In words: cAMP assay (LANCE cAMP-384) in HEK293 cells stably expressing mutant human GPR119 receptor. The following applies: HEK293, 20 min; 10 μM; the 28th table; read-out: stimulation in % at 10 μM. The assay is classed as cell-based. A digest of the protocol: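 Agonist EC50 came from nonlinear regression over 12 concentrations (30 μM–100 pM), with % stimulation at 10 μM where no EC50 was obtained. Cells: stable HEK293 with mutant human GPR119 (T327A/S329A), 20 min compound at 37° C; cAMP read by LANCE kit with standard curve.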
Background: Cyclic AMP is a second messenger, typically raised through Gs and lowered through Gi signalling.
Consider `CC(C)OC(=O)N1CCC(ON=C2CCN(c3ncc(-n4cccn4)cn3)CC2)CC1` [Example 51-5], for which the activation at 10 µM worked out at 96%.

Staying with this assay, now noted: HEK293, 20 min; 10 μM; the 30th table; read-out: stimulation in % at 10 μM.
For `Cc1nnn(Cc2cnc(N3CCC(=NOC4CCN(C(=O)OC(C)C)CC4)CC3)c(F)c2)n1` [Example 54-5], the activation at 10 µM amounted to 75%.

The assay is the same for the next values; noted with them: HEK293, 20 min; at 10 μM; printed in EC50 column of the 36th table; read-out: stimulation in % at 10 μM.
`COc1ccccc1CN1CCC(ON=C2CCN(c3ccc(S(C)(=O)=O)cc3F)CC2)CC1` [Example 66-18]: the activation at 10 µM is 66%.

The assay is the same for the next values; noted with them: HEK293, 20 min; single concentration 10 μM; given where no EC50 value could be determined; read-out: % stimulation at 10 μM.
`CC(C)OC(=O)N1CCC(ON=C2CCN(c3cc(F)c(C4=NCCN4)cc3F)CC2)CC1` [Example 19-1, 4-{1-[4-(4,5-Dihydro-1H-imidazol-2-yl)-2,5-difluoro-phenyl]-piperidin-4-ylideneaminooxy}-piperidine-1-carboxylic acid isopropyl ester]: the activation at 10 µM amounted to 53%.

Still in this assay, the particulars now being: cAMP accumulation, HEK293 cells stably expressing mutant human GPR119; read-out: EC50.
For `CC(C)OC(=O)N1CCC(ON=C2CCN(c3cc(F)c(CNCCF)cc3F)CC2)CC1` [Example 5-9], the pEC50 was 6.15.
On to `COCc1cc(F)c(N2CCC(=NOC3CCN(C(=O)OC(C)C)CC3)CC2)cc1F` [Example 49-1, 4-[1-(2,5-Difluoro-4-methoxymethyl-phenyl)-piperidin-4-ylideneaminooxy]-piperidine-1-carboxylic acid isopropyl ester], for which the pEC50 is 6.58.
For `CC(C)OC(=O)N1CCC(ON=C2CCN(c3ccc4c(c3)CCC4=O)CC2)CC1` [Example 2-38], the pEC50 is under 5.00.
The same measure, in the same setting: then `CC(C)OC(=O)N1CCC(ON=C2CCN(c3cc(F)c(-c4ccc5[nH]ccc5c4)cc3F)CC2)CC1` [Example 27-32], with 5.86; and `CC(C)OC(=O)N1CCC(ON=C2CCN(c3cc(F)c(NC(N)=O)cc3F)CC2)CC1` [Example 37-1, 4-[1-(2,5-Difluoro-4-ureido-phenyl)-piperidin-4-ylideneaminooxy]-piperidine-1-carboxylic acid isopropyl ester], with 7.15; and `CC(C)OC(=O)N1CCC(ON=C2CCN(c3ccc(C=O)cc3)CC2)CC1` [Example 2-28], with under 5.00.
Still for that read-out and setting: with `CC(C)OC(=O)N1CCC(ON=C2CCN(c3cc(F)c(CNC=O)cc3F)CC2)CC1` [Example 16-8] the figure was 6.92.
On the same count and under the same terms, with `CC(C)OC(=O)N1CCC(ON=C2CCN(c3cc(F)c([N+](=O)[O-])cc3F)CC2)CC1` [Example 2-62] the figure was 6.52; with `CC(C)OC(=O)N1CCC(ON=C2CCN(c3ncc([N+](=O)[O-])s3)CC2)CC1` [Example 2-13], 5.29; with `CC(C)OC(=O)N1CCC(ON=C2CCN(c3cc(F)c(CN(C)CCCC(=O)O)cc3F)CC2)CC1` [Example 5-10], under 5.00.
`CC(C)OC(=O)N1CCC(ON=C2CCN(c3ccnc(O)c3)CC2)CC1` [Example 2-4]: the pEC50 is under 5.00.
Same read-out and setting: with `Cc1ccc(-c2cc(F)c(N3CCC(=NOC4CCN(C(=O)OC(C)C)CC4)CC3)cc2F)s1` [Example 27-23] the figure was 6.56.
Turning to `CC(C)OC(=O)N1CCC(ON=C2CCN(c3cc(F)c(C(=O)NCCC(=O)O)cc3F)CC2)CC1` [Example 30-2], the pEC50 is 5.94.
The same measure, in the same setting: then `CC(C)OC(=O)N1CCC(ON=C2CCN(c3cc(F)c(Cn4cccc5ncnc4-5)cc3F)CC2)CC1` [Example 14-7], with 6.15; and `CC(C)OC(=O)N1CCC(ON=C2CCN(c3cc(F)c(CN4CCOC4=O)cc3F)CC2)CC1` [Example 15-1, 4-{1-[2,5-DIFLUORO-4-(2-OXO-OXAZOLIDIN-3-YLMETHYL)-PHENYL]-PIPERIDIN-4-YLIDENEAMINOOXY}-PIPERIDINE-1-CARBOXYLIC ACID ISOPROPYL ESTER], with 6.85; and `CC(C)OC(=O)N1CCC(ON=C2CCN(c3ncnc(F)c3F)CC2)CC1` [Example 2-58], with 6.22.
The same measure, in the same setting: then `Cc1nnn(Cc2cc(F)c(N3CCC(=NOC4CCN(C(=O)OC(C)C)CC4)CC3)cc2F)n1` [Example 14-16], with 6.59; and `CC(C)(C)OC(=O)N1CCC(ON=C2CCN(c3ccc(S(C)(=O)=O)cc3F)CC2)CC1` [Example 1-1, tert-Butyl 4-[1-(2-Fluoro-4-methanesulfonylphenyl)piperidin-4-ylideneaminooxy]piperidine-1-carboxylate], with 7.54.
The same measure, in the same setting: with `CC(C)OC(=O)N1CCC(ON=C2CCN(c3cc(F)ccc3F)CC2)CC1` [Example 32-2] the figure was 5.54; with `COc1nc(N2CCC(=NOC3CCN(C(=O)OC(C)C)CC3)CC2)ncc1Br` [Example 2-56], under 5.00; with `CC(C)OC(=O)N1CCC(ON=C2CCN(c3ncc(F)cc3F)CC2)CC1` [Example 2-69], 5.99.

Still in this assay, the particulars now being: the 15th table; read-out: EC50.
As for `CC(C)OC(=O)N1CCC(ON=C2CCN(c3cc(F)c(C(=O)N4CCC(CN(C)C)CC4)cc3F)CC2)CC1` [Example 29-47], the pEC50 is 6.58.
Same read-out and setting: then `CC(C)OC(=O)N1CCC(ON=C2CCN(c3cc(F)c(C(=O)N(C)C)cc3F)CC2)CC1` [Example 29-1, 4-[1-(4-Dimethylcarbamoyl-2,5-difluoro-phenyl)-piperidin-4-ylideneaminooxy]-piperidine-1-carboxylic acid isopropyl ester], with 6.89; and `COCCCNC(=O)c1cc(F)c(N2CCC(=NOC3CCN(C(=O)OC(C)C)CC3)CC2)cc1F` [Example 29-10], with 7.55.
As to `COCCNC(=O)c1cc(F)c(N2CCC(=NOC3CCN(C(=O)OC(C)C)CC3)CC2)cc1F` [Example 29-12], the pEC50 was 7.92.

Still in this assay, the particulars now being: the 19th table; unit inferred; read-out: EC 50.
With `CCc1cnc(N2CCC(ON=C3CCN(c4cc(F)c(C(=O)NCC5CCCN5C)cc4F)CC3)CC2)nc1` (stereo not shown) [Example 29-138], the pEC50 is 6.73.
In the case of `CCc1cnc(N2CCC(ON=C3CCN(c4cc(F)c(C(=O)NCC5CNCCO5)cc4F)CC3)CC2)nc1` (stereo not shown) [Example 29-113], the pEC50 is 7.59.
Still for that read-out and setting: then `CCc1cnc(N2CCC(ON=C3CCN(c4cc(F)c(C(=O)NC5CCNC5)cc4F)CC3)CC2)nc1` (stereo not shown) [Example 29-123], with 6.39.
Still for that read-out and setting: with `CCc1cnc(N2CCC(ON=C3CCN(c4cc(F)c(C(=O)NCC5CCNCC5)cc4F)CC3)CC2)nc1` [Example 29-128] the figure was 7.15.
As for `CCc1cnc(N2CCC(ON=C3CCN(c4cc(F)c(C(=O)N5CCCNCC5)cc4F)CC3)CC2)nc1` [Example 29-114], the pEC50 is 6.41.

Still in this assay, the particulars now being: the 25th table; read-out: EC50.
For `CC(C)OC(=O)N1CCC(ON=C2CCN(c3cc(F)c(/C=C/C#N)cc3F)CC2)CC1` [Example 39-2], the pEC50 is 6.80.

The same assay, now with this note: the 26th table; read-out: EC50.
In the case of `CC(C)OC(=O)N1CCC(ON=C2CCN(c3ccc(S(C)(=O)=O)cn3)CC2)CC1` [Example 46-3], the pEC50 is 6.21.

Still in this assay, the particulars now being: the 32nd table; read-out: EC50.
Take `CS(=O)(=O)c1ccc(N2CCC(=NOC3CCN(c4ncc(Br)cn4)CC3)CC2)c(F)c1` [Example 63-19]: the pEC50 is 7.11.

Still in this assay, the particulars now being: the 33rd table; read-out: EC50.
As to `C#CCOC(=O)N1CCC(ON=C2CCN(c3ccc(S(C)(=O)=O)cc3F)CC2)CC1` [Example 64-3], the pEC50 is 6.35.
For `CC1(COC(=O)N2CCC(ON=C3CCN(c4ccc(S(C)(=O)=O)cc4F)CC3)CC2)CC1` [Example 64-7], the pEC50 is 7.17.
On the same count and under the same terms, then `CN1CCCC(OC(=O)N2CCC(ON=C3CCN(c4ccc(S(C)(=O)=O)cc4F)CC3)CC2)C1` (stereo not shown) [Example 64-19], with under 5.00; and `CS(=O)(=O)c1ccc(N2CCC(=NOC3CCN(C(=O)OC4CNC4)CC3)CC2)c(F)c1` [Example 64-33], with under 5.00.

The assay is the same for the next values; noted with them: the 35th table, compounds 65-25 to 65-36; read-out: EC50.
Turning to `CS(=O)(=O)c1cc(F)c(N2CCC(=NOC3CCN(C(=O)Cc4ccccc4)CC3)CC2)cc1F` [Example 65-28], the pEC50 is 6.62.

The same assay, now with this note: the 36th table, compounds 66-1 to 66-51; read-out: EC50.
Regarding `Cc1nc(CN2CCC(ON=C3CCN(c4ccc(S(C)(=O)=O)cc4F)CC3)CC2)cs1` [Example 66-14], the pEC50 is under 5.00.
With `Cc1nc(CN2CCC(ON=C3CCN(c4ccc(S(C)(=O)=O)cc4F)CC3)CC2)c[nH]1` [Example 66-8], the pEC50 is under 5.00.
In the case of `CS(=O)(=O)c1ccc(N2CCC(=NOC3CCN(Cc4ccncc4)CC3)CC2)c(F)c1` [Example 66-4], the pEC50 was under 5.00.
For `Cc1c(CN2CCC(ON=C3CCN(c4ccc(S(C)(=O)=O)cc4F)CC3)CC2)cnn1C` [Example 66-7], the pEC50 was under 5.00.
The same measure, in the same setting: then `COc1ccc(CN2CCC(ON=C3CCN(c4ccc(S(C)(=O)=O)cc4F)CC3)CC2)c(F)c1` [Example 66-50], with 5.99.

Staying with this assay, now noted: the 38th table, compounds 66-65 to 66-72; read-out: EC50.
As for `CNC(=O)c1cc(F)c(N2CCC(=NOC3CCN(Cc4ccc(-c5ccccn5)cc4)CC3)CC2)cc1F` [Example 66-65], the pEC50 is 6.10.

The same assay, now with this note: the 39th table, compounds 67-1 to 67-3; read-out: EC50.
For `Cc1ccc(N2CCC(ON=C3CCN(c4ccc(S(C)(=O)=O)cc4F)CC3)CC2)nc1` [Example 67-1, 1-(2-Fluoro-4-methanesulfonyl-phenyl)-piperidin-4-one O-(5′-methyl-3,4,5,6-tetrahydro-2H-[1,2′]bipyridinyl-4-yl)-oxime], the pEC50 is 6.41.
